One may read the Kd as the concentration at which binding is half-saturated. Lower therefore signals a tighter complex. Usually IC50 stands for the concentration that gives 50% inhibition. The low end stands for greater potency in that assay, the high end for weaker potency in that assay.

Data set [1] deals with PCBP2. The data set is described as follows: Western blot of PCBP2 in PC-3 cells. Format: cell-based, human. The following applies: different concentrations. On the procedure:
(§1) The culture medium containing PC-3 cells was discarded, lysis buffer was added, and the cells were collected with a scraper. The sample is then transferred to a centrifuge tube and the cells are fully lysed. Centrifuge the tube at 12,000 g and 4 ℃ for 10 min. After taking the supernatant, mix with the protein: protein loading buffer (v/v) = 5:1 ratio, and boil at 95 ℃ for 10 min to fully denaturate the protein. BCA protein concentration assay kit (Beyotime, China) was used to quantify the protein of experimental samples. Equal amounts of protein (30 µg) were loaded onto 7.5-12.5% SDS-PAGE gel. After adding the sample, the target protein was separated at 140 V constant pressure and was transferred under the condition of 250 mA constant current and the highest voltage. The transferred PVDF membrane (Thermo Fisher Scientific, MA, USA) was sealed in 5% skim milk (BIOFRox, Germany) for 2 h. The membrane was incubated in the antibody diluent of the corresponding protein at 4 ℃ overnight in a shaker and washed with TBST (Gibco, USA) for three times. Then it was placed in secondary antibody diluent for incubating 1.5 h at 4 ℃ in a shaker and washed again for three times. Finally, appropriate amount of ECL luminescent solution was taken to infiltrate PVDF membrane for development, and the strip was exposed and recorded.
On the technique in general: A western blot detects proteins with antibodies after separation by electrophoresis.

The target in data set [2] is PCBP2 protein (Homo sapiens, UniProt Q15366). Kind of data set: SPR binding to immobilized PCBP2 (CM5 chip). The following applies: analyte 31.25–500 µM. As for the experimental part: The PCBP2 protein was first immobilized on the CM5 microarray using […], and then the analyte was run using a multi-cycle method. Briefly, small molecules were diluted to different concentrations with Running Buffer, and injected into channel Fc1-Fc2 at a flow rate of 30 µl/min. The association period was 60 s, and then dissociated for 90 s. The association and dissociation processed in the Running Buffer.

Data set [3] relates to PC-3 subcutaneously transplanted tumor. The data set is described as follows: PC-3 subcutaneously transplanted tumor model in nude mice. The class given is in vivo, Balb/C nude mice. The following applies: for tumor weight: last day of administration, control group 2885.5 ± 432.0 mg. On the procedure:
(§2) PC-3 cells in logarithmic growth phase were collected and the total number of cells required was calculated. Cells were re-suspended in a suitable volume of PBS and added to matrigel (PBS: matrigel = 1:1(v/v)) at a concentration of 5 × 10^6 cells/mL for subcutaneous inoculation on the right side of Balb/C nude mice. On day 0, 0.1 mL 5 × 10^6 cells/mL cell suspension (PBS: matrigel = 1:1(v/v)) was subcutaneously inoculated on the right neck and back of each nude mouse except the mice of normal group, to establish PC-3 subcutaneously transplanted tumor model. On day 8 after cell inoculation, the tumor grew to an average volume of 140.3 mm^3. The groups were randomly divided into normal group (Normal), control group (Control), methotrexate group (MTX 4.8 mg/kg), low dose group (C 5 mg/kg), medium dose group (C 10 mg/kg) and high dose group (C 20 mg/kg). Except for 3 mice in the normal group, 6 mice in the other groups were administered twice a week via tail vein (BIW). After 2 weeks of dosing, the dose was changed to once a day (QD). After 2 days of QD administration, tail vein injection was changed to intraperitoneal administration, and QD administration was continued for 5 days. Pharmacodynamic activity was evaluated based on tumor inhibition rate (TGITV) and tolerance was evaluated based on animal weight change and death. At the end of the experiment, all the animals were bled under isoflurane anesthesia and the serum was extracted. The heart, liver, spleen, lung and kidney of each nude mouse were collected and fixed in 4% paraformaldehyde or quick-frozen in liquid nitrogen and stored at -80 ℃ for tissue protein extraction.
(§3) Tissue samples were embedded, sectioned, dewaxed, stained, dehydrated and transparent, and sealed with neutral gum. After drying in a ventilated place, observing and recording under a microscope, the sections were stored at room temperature.
Mouse tumor tissues were fixed with 4% PFA and washed with PBS, and TUNEL staining was performed with TUNEL apoptosis detection kit according to manufacturer’s instructions. Cell nucleus were stained with DAPI, slides were rinsed and imaged with fluorescence microscopy, and finally apoptosis was analyzed with image analyzer.

Data set [4] has as its system human prostate carcinoma PC-3 cells. Kind of data set: CCK-8 cytotoxic activity assay, PC-3. Format: cell-based. The following applies: CCK-8, 48 h. On the procedure: (§4) Human prostate carcinoma PC-3 cells and human proximal tubular HK-2 cells purchased from Chinese National Collection of Authenticated Cell Cultures were cultured in RPMI 1640 medium containing FBS (10%, Gibco, CA, USA) and Penicillin-Streptomycin (1%, Gibco, CA, USA). The cells were cultured at a concentration of 5% CO2 and a temperature of 37 ℃, and the medium was changed every two days.
(§5) CCK-8 assay was used to evaluate the proliferation and cytotoxicity of Curcusone C and its derivatives. Cells of 100 µL with a concentration of 5000 cells/mL to 8000 cells/mL were inoculated in 96-well plates for culturing 24 h, and the blank well was added with equal volume medium. After cell adhesion, 10 µL Curcusone C solution or its derivatives were added to each well of the experimental groups except the blank well to the final concentration of drug was 1 mM, […] respectively, and 10 µL DMSO (drug solvent) was added to the control well. The liquid was discarded 48 h later, and 100 µL medium and 10 µL CCK-8 reagent (Beyotime, Shanghai, China) were added to each well. After incubation for 0.5 to 1 h, the absorbance valued at 450 nm was measured and the cell inhibition rate or survival rate was calculated. Cell inhibition rate= […].
(Formazan colour is commonly taken as a measure of viable cells.)

Data set [5] deals with PCBP2, FHL3, TGF-β1, phosphorylated Smad2 and phosphorylated Smad7. The data set is described as follows: Immunohistochemistry of tumor tissues of nude mice. Format: in vivo, Balb/C nude mice. As for the experimental part: Paraffin sections underwent successively dewaxing to water, antigen repair, blocking of endogenous peroxidase, serum blocking, primary antibody incubation, secondary antibody reaction, DAB color development, counterstaining of nuclei, dehydration and sealing, image acquisition and analysis, and microscopic examination.

Data set [6] relates to PCBP2. Kind of data set: DARTS (pronase digestion of PCBP2 in PC-3 protein extract). The class given is binding, human. The following applies: 100 µM. On the procedure: PC-3 cells protein was extracted, and the protein concentration was adjusted to 5 mg/mL and was packed into 99 µL/tube. Then, 10 mM and 5 mM Curcusone C solution of 1 µL was added to protein mixture of 99 µL and gently shaken at room temperature for 1 h. After the compounds were completely incubated, the samples were divided into one part every 20 µL, and 2 µL pronase solution with a certain concentration was added. The control group was added with 2 µL TNC buffer and incubated at room temperature for 30 min to ensure the same digestion time in each group. Digestion was terminated with 20X protease inhibitor complex and incubated on ice for 10 min. Finally, 6 µL 5X protein loading buffer was added to each sample and boiled at 100 ℃ for 10 min to fully denaturate the protein. The samples were centrifuged at 1100 g and 4 ℃ for 1 min and were performed western blot.

Data set [7] deals with human proximal tubular HK-2 cells. The data set is described as follows: CCK-8 cytotoxic activity assay, HK-2 normal cells. Format: cell-based. The following applies: HK-2, 48 h, CCK-8, 48 h. As for the experimental part: as §4, §5
The nature of data set [8]: Tolerance and organ toxicity in tumor-bearing nude mice (body weight, HE staining). Format: in vivo. As for the experimental part: as §2, §3
Data set [9] has as its system Bax, Bcl-2, caspase-3 and PARP proteins in PC-3 cells. The data set is described as follows: Western blot of mitochondrial apoptosis pathway proteins in PC-3 cells. Format: cell-based, human. The following applies: increasing concentration. On the procedure:
as §1

Chain of PCBP2 protein (Q15366 whole entry): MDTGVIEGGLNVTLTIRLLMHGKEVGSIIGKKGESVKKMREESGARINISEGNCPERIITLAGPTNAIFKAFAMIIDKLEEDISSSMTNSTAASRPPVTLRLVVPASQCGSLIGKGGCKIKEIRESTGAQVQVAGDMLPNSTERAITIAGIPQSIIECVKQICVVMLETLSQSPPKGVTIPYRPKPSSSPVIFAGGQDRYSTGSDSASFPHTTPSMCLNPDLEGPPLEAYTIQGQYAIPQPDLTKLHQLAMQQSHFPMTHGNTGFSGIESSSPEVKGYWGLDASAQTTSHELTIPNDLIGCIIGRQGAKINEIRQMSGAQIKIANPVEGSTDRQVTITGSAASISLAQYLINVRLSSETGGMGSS

In the case of `C=C1CC[C@H](C(=C)C)[C@H]2C=C(C)C(=O)C3=C(C(=O)[C@](C)(O)C3)[C@H]12` [Curcusone C], the “relative content of PCBP2 in PC-3 cells” value in data set [1] is given as “decreased with the increase of drug concentration”. Further, binding in data set [2] was put at a Kd of 3150 µM. Also, in data set [3] (5 mg/kg), the “TUNEL apoptotic signal in tumor tissue” value is reported as “no apoptotic cell signal”, the tumor inhibition rate is given as 18% and the tumor weight amounted to 2356.7 ± 445.7 mg. Also, in data set [3] (10 mg/kg), the “TUNEL apoptotic signal in tumor tissue” value is listed as “red marker signal”, the tumor inhibition rate was 33% and the tumor weight turned out to be 1925.6 ± 242.1 mg. For the same molecule, in data set [3] (20 mg/kg), the “HE staining of tumor tissue” value was “nuclear pyknosis and lysis”; the “TUNEL apoptotic signal in tumor tissue” value is “most obvious apoptotic signal”; the tumor inhibition rate entry is “about 39%”; the tumor weight is recorded as 1759.6 ± 448.7 mg. Besides, the half-maximal inhibitory concentration (IC50) in [4] (PC-3, 48 h) is about 3.24 µM. Also, the “changes of TGF-β1, P-Smad2 and P-smad7 proteins in tumor tissues” value in [5] (IHC) was “downward trend”. Besides, in data set [5] (IHC, 20 mg/kg), the “content of FHL3 protein in tumor tissues” value is on record as “higher than that in Control group”. For the same molecule, in data set [5] (IHC, 5, 10, 20 mg/kg), the “expression of PCBP2 protein in tumor tissues” value was “decreased with the increase of drug concentration”. The “amount of enzymolysis by pronase of PCBP2” value in data set [6] is “lower than that of control group”. In data set [7], this molecule returned an IC50 of over 20 µM. Besides, in [8] (20 mg/kg), the “HE staining of lung tissue” value is given as “no interstitial thickening of lung tissue” and the “body weight of nude mice” value is recorded as “weight loss due to intolerance at the initial stage of drug administration”. Besides, the “HE staining of renal tissue” value in data set [8] (after administration of Curcusone C) is “no obvious abnormality”. Also, in data set [8] (compared with the normal group), the “HE staining of heart, liver, spleen, lung and kidney” value is reported as “no significant changes”. In data set [9], the “level of Bcl-2 in PC-3 cells” value is listed as “decreased gradually”; the “relative expression levels of Bax, cleaved caspase-3 and cleaved PARP in PC-3 cells” value is given as “increased gradually”.
The molecule `C=C(C)[C@@H](CCC(=O)COC(C)=O)c1cc2c(c(=O)c(C)c1)C[C@@](C)(O)C2=O` [Derivative C-10] registered an IC50 in [4] (PC-3, 48 h) of over 20 µM.
For the molecule `C=C(COC(C)=O)[C@H]1CCC(O)(CCl)C2C3=C(C[C@@](C)(O)C3=O)C(=O)C(C)=CC21` (stereo partly shown) [Derivative C-8], inhibition in [4] (PC-3, 48 h) was half-maximal at 9.49 ± 0.17 µM (IC50).
`C=C(C=O)[C@H]1CCC(O)(CCl)C2C3=C(C[C@@](C)(O)C3=O)C(=O)C(C)=CC21` (stereo partly shown) [Derivative C-4] returned an IC50 in data set [4] (PC-3, 48 h) of 2.35 ± 0.37 µM. Compared with the last molecule, the IC50 is about 4-fold lower.
The molecule `C=C(COc1ccc([N+](=O)[O-])cc1)[C@@H](CCC(=O)COc1ccc([N+](=O)[O-])cc1)c1cc2c(c(=O)c(C)c1)C[C@@](C)(O)C2=O` [Derivative C-12] gave an IC50 in data set [4] of over 20 µM.
The molecule `C=C(C)[C@H]1CCC(O)(CI)C2C3=C(C[C@@](C)(O)C3=O)C(=O)C(C)=CC21` (stereo partly shown) [Derivative C-3] came in with an IC50 in data set [4] (PC-3, 48 h) of 10.3 ± 0.58 µM.
For the molecule `C=C(CO)[C@H]1CCC(O)(CCl)C2C3=C(C[C@@](C)(O)C3=O)C(=O)C(C)=CC21` (stereo partly shown) [Derivative C-7], in data set [4] (PC-3, 48 h), the IC50 came to 16.3 ± 3.25 µM.
In the case of `CN(Cc1cnc2nc(N)nc(N)c2n1)c1ccc(C(=O)N[C@@H](CCC(=O)O)C(=O)O)cc1` [Methotrexate, reference compound], in [3] (4.8 mg/kg), the “HE staining of tumor tissue” value is “nuclear pyknosis and lysis”; the “TUNEL apoptotic signal in tumor tissue” value was “most obvious apoptotic signal”; the tumor inhibition rate was 48%; the tumor weight was 1503.4 ± 243.0 mg. Further, the half-maximal inhibitory concentration (IC50) in data set [4] (PC-3, 48 h) stood at 0.89 ± 0.22 µM. Also, the IC50 in data set [7] was about 3.21 µM. For the same molecule, in data set [8] (4.8 mg/kg), the “HE staining of kidney (glomerulus in the renal cortex)” value is recorded as “severe pyknosis”; the “HE staining of lung tissue” value was “significant pulmonary interstitial thickening and pneumonic pathological manifestations”.
In data set [4] (PC-3, 48 h), `C#CCCCC(=O)O[C@]1(C)CC2=C(C1=O)C1C(=C)CC[C@H](C(=C)C)C1C=C(C)C2=O` (stereo partly shown) [Positive probes] showed an IC50 of 7.34 ± 0.2 µM.
On to `C=C(C)[C@H]1CCC(O)(CCl)C2C3=C(C[C@@](C)(O)C3=O)C(=O)C(C)=CC21` (stereo partly shown) [Derivative C-2], for which, in [4] (PC-3, 48 h), the IC50 came to 6.4 ± 0.38 µM.
With `C=C(C)C(=O)OCC(=C)[C@H]1CCC(O)(CCl)C2C3=C(C[C@@](C)(O)C3=O)C(=O)C(C)=CC21` (stereo partly shown) [Derivative C-5], the IC50 in [4] (PC-3, 48 h) turned out to be 2.05 ± 0.96 µM.
In [4] (PC-3, 48 h), `C=C(COC(=O)CC(=O)OC)[C@H]1CCC(O)(CCl)C2C3=C(C[C@@](C)(O)C3=O)C(=O)C(C)=CC21` (stereo partly shown) [Derivative C-9] registered an IC50 of 5.97 ± 1.16 µM.
On the same count and under the same terms, the same measure for `C=C1CC[C@H](C(=C)C)C2C=C(C)C(=O)C3=C(C(=O)[C@](C)(Cl)C3)C12` (stereo partly shown) [Derivative C-1]: 3.74 ± 0.4 µM; for `C=C(COC(=O)/C=C/C=C/C)[C@H]1CCC(O)(CCl)C2C3=C(C[C@@](C)(O)C3=O)C(=O)C(C)=CC21` (stereo partly shown) [Derivative C-6]: 1.81 ± 0.18 µM.
In data set [4], `C=C(CCl)[C@H]1CCC(O)(CCl)C2C3=C(C[C@@](C)(O)C3=O)C(=O)C(C)=CC21` (stereo partly shown) [Derivative C-13] returned an IC50 of 2.96 ± 0.37 µM.
As to `C=C(C)[C@@H](CCC(=O)CN(CC)CC)c1cc2c(c(=O)c(C)c1)C[C@@](C)(O)C2=O` [Derivative C-11], the half-inhibitory concentration (IC50) in data set [4] (PC-3, 48 h) was over 20 µM.

The values are drawn from PMC10563230, “Unveiling poly(rC)-binding protein 2 as the target protein for curcusone C against prostate cancer: mechanism validation through click chemistry-activity based proteomics profiling approach” (BMC Cancer, 2023).
